As usually defined, the mortality is the percentage killed.

Entries after “also recorded” stand apart in the source; their conditions may differ.

Data on 1 compound can be found in patent US5110976A, “Insecticidal composition comprising more than one active ingredient” (priority 1985, dated 1992).

Data set [1] in a line: Allergy and skin diseases. Particulars: in vivo.
In data set [2] the test system is T. confusum. The experiment in a line: Contact method, synergism between stereoisomers (Table 2). It counts as in vivo. Particulars: Tribolium confusum, 24 h. How it is done:
The stereoisomers are dissolved in a 1:2 mixture of mineral oil and acetone and filter paper discs (Whatman No. 1., diameter 9 cm) are impregnated with the corresponding dosage of the solution of the active ingredient. The acetone is allowed to evaporate and the insects are examined on filter paper discs placed into Petri-dishes. Three parallels are used for each dose and 15 animals are placed in each Petri-dish. Mortality rate is determined after 24 hours. The corrected mortality % data are calculated by means of the Abbot formula.
The test is carried out on T. confusum and the following results are obtained by the contact method for various active ingredient doses.
The test is carried out according to the method described in Example 20.

Data set [3] has as its system L. decemlineata. Briefly: 5 EC formulation sprayed on glass plates (Table 9). It counts as in vivo, Colorado beetle (L. decemlineata), imagos. Particulars: 48 hours. How it is done: From a 5 EC formulation according to Example 17 50-, 100-, 200-, 400-, 800- and 1600-fold diluted emulsions are prepared by diluting with water. 0.5 ml of the emulsions are sprayed onto glass plates whereupon after drying 10 Colorado beetles (L. decemlineata) imagos are placed on each glass plate and the insects are covered. The tests are carried out with 6 doses by carrying out 3 parallels for each dose. The killed insects are counted after 48 hours and the percental mortality rate is calculated.

Data set [4] relates to bees. The experiment in a line: Toxicity on bees. Particulars: in vivo.
Data set [5] relates to Leptinotarsa decemlineata. Briefly: Topical test on potato beetle (Table 6). The data set is classed as in vivo, imagos. Particulars: 24 h. The procedure: The active ingredients are dissolved in 2-ethoxyethanol and […] of the solutions are applied onto the abdominal sterna of potato beetle (Leptinotarsa decemlineata) imagos. The treatments are carried out by using two parallels and 10 insects for each dose. […]

For data set [6], the system named is useful entomophages and parasites. The experiment in a line: Damage to useful entomophages and parasites. Particulars: in vivo.
The test system of data set [7] is Musca domestica. The experiment in a line: Topical LD50 (Table 3). The data set is classed as in vivo, house fly (Musca domestica), 3-5 days' old females. How it is done: In Table 3 the LD50 values of the Ig and Ii isomers and those of the Ib isomer-pair are disclosed. The data are topically measured.
The active ingredients are dissolved in 2-ethoxyethanol (cellosolve) and 0.3 μl droplets of the solutions are applied onto the dorsal cuticulum of 3-5 days' old female house flies. 10 animals are used and 2 parallels are carried out for each dose. The tests are carried out for 5 dose levels between activity limits of 0% and 100%. After treatment the flies are placed into glass vials. Mortality is determined after 24 hours. Data are transformed to log10 dosage and probit mortality. LD50 and confidence interval values are calculated by linear regression analysis of the log-probit data. The expected values required for the calculation of synergism are obtained by means of harmonic average. The synergistic factor is the quotient of the expected and measured values.

Data set [8] can be described thus: Repellant effect. Particulars: in vivo.

On to `CC1(C)[C@H](C=C(Cl)Cl)[C@H]1C(=O)O[C@H](C#N)c1cccc(Oc2ccccc2)c1` (relative stereo) [Ib], for which the “allergy and skin diseases” value in data set [1] was “causes no allergy and skin diseases”. Further, the mortality at 110 µg/disc in data set [2] (0.11 mg/disc) was 90%. Moreover, in data set [2] (0.33 mg/disc), the mortality at 330 µg/disc is 100%. Further, the mortality at 1000 µg/disc in data set [2] (1.00 mg/disc) was found to be 100%. Besides, in data set [2] (3.00 mg/disc), the mortality at 3000 µg/disc is 100%. In addition, the Mortality % in data set [3] (dilution 50x) is 100%; in data set [3] (dilution 100x), 87%; in data set [3] (dilution 200x), 57%; in data set [3] (dilution 400x), 37%; in data set [3] (dilution 800x) it was 13%; in data set [3] (dilution 1600x), 0%. The toxicity on bees entry in data set [4] is on record as “very low toxicity on bees”. In data set [5] (0.05 μg/insect), this compound yielded a mortality at 0.05 µg/insect of 0%. In data set [5] (0.10 μg/insect), this compound gave a mortality at 0.1 µg/insect of 25%. For the same compound, the mortality at 0.2 µg/insect in data set [5] (0.20 μg/insect) was 75%. For the same compound, the mortality at 0.4 µg/insect in data set [5] (0.40 μg/insect) was 85%. Further, in data set [6], the “damage / toxicity to useful entomophages and parasites” value is “does not damage useful entomophages and parasites; also recorded: less toxic on parasites than the isomer-pair Ia”. The LD50 expected in data set [7] (harmonic average of the single isomers) was found to be 24.5 ng/insect. In addition, the synerg. factor in data set [7] (quotient of expected and measured LD50) amounted to 1.92. In addition, the LD50 measured in data set [7] (topical, dorsal cuticulum, 24 hours) amounted to 12.8 ng/insect. Besides, in data set [8], the repellant effect entry was “outstandingly good”.
